Reference: patent US6384076B1, “Inhibition or erythrocyte sickling by N-L-alpha-aspartyl-L-phenylalanine 1-methyl ester” (Oklahoma Medical Research Foundation, priority 1998, dated 2002)
Several values for one entry are separate records, joined by “and”; a condition that tells them apart may be missing. Equal values may be shown once. Peptide text beside a SMILES is read from it.

What was measured:
RBCs containing HbS = experiment: Metabisulfite sickling test on heparinized patient blood treated with APM in vitro; format: cell-based, human; details: for Number of Cells Sickled per Hundred Counted: individual patients 1-12, baseline subtracted; for Number of Cells Sickled per Hundred Counted, Avg: average over 0, 30, 120 min per patient 1-12; for Number of Cells Sickled per Hundred Counted, Mean: mean of the twelve patients' averages (control 17.7)
Protocol: Blood was drawn from twelve patients of pediatric age who were being treated by phlebotomy and exchange transfusion for their sickling disorders. Blood samples from each patient were drawn directly into heparin tubes, stored in a refrigerator at approximately 10° C., and routinely tested within 36 hours of collection. Some samples were rechecked or reanalyzed within a week of collection, and the effects on sickle hemoglobin was still present with counted values similar to those obtained within 36 hours.
Normal blood devoid of HbS was used as a control. For each heparinized patient blood sample and the normal blood control, three experimental samples were prepared containing 0.25 milliliters of normal saline and 0.25 milliliters of blood and then treated as follows: (1) one was left untreated; one was treated with 1 milligram APM; and (3) one was treated with 2 milligrams APM. All experimental samples were stored in a refrigerator at approximately 10° C. for one hour prior to testing to allow time for the APM to be absorbed by the RBCs.
Using metabisulfite to reduce HbS to the deoxy form (Daland, G. A. and Castle, W. B. 1948. J Lab Clin Med 33:1082-1088; Nelson, D. A. In Todd-Sanford-Davidsohn Clinical Diagnosis by Laboratory Methods, J. B. Henry, ed. (W. B. Saunders Co., Philadelphia, 1979, vol. 1, p. 1020), a sickling test was run on each experimental sample. The sickling inducing agent was prepared fresh daily as follows: 10 milligrams metabisulfite in 1 milliliter isotonic saline. Multiple test slides were prepared for each experimental sample by adding 3 drops of the metabisulfite inducing agent and 1 drop of the experimental sample onto the surface of a glass slide, placing a coverslip over the sample, and sealing the coverslip with a petroleum jelly bead to prevent oxygen from entering the sample. Photomicrographs were taken with a phase contrast microscope at 400 magnification at 0, 30, and 120 minutes after slide preparation, and the results were obtained from the photomicrographs as the number of sickle cells per 100 cells counted.
To account for natural or non-induced sickling of the experimental samples, a baseline sickling count was obtained for each heparinized patient blood sample and the normal blood control. Slides were prepared by adding 3 drops of saline and 1 drop of the experimental sample onto the surface of a glass slide, placing a coverslip over the sample, and sealing the coverslip with a petroleum jelly bead to prevent oxygen from entering the sample. Photomicrographs were taken with a phase contrast microscope at 400 magnification at 0, 30, and 120 minutes after slide preparation, and the results were obtained from the photomicrographs as the number of sickle cells per 100 cells counted. This number of sickle cells per 100 cells counted was considered the baseline sickling count and was subtracted from the cell counts obtained with the metabisulfite induced samples.
A timeline for APM effect was made by repeating the experiment given above with cell counts obtained at 0, 1, 2, 3, 4, 5, 24, and 27 hours post-metabisulfite induction. The results are presented in FIG. 2 as combined APM timelines for each treatment method. The antisickling effect of APM in vitro lasted for at least 27 hours. During this period, the rate of sickling in the APM treated
The effect of calcium (Ca^2+) on the effectiveness of APM was examined by repeating the experiment above with the addition of EDTA, a Ca^2+chelating agent, to normal blood control and the patient experimental samples prior to testing. FIG. 3 illustrates the comparative heparin versus EDTA treatment of the blood. […] Moreover, the addition of a calcium salt to APM formulations useful for antisickling treatment as well as in vitro applications is desirable.

sickling RBCs [1] = experiment: Reduction of sickle cells in vivo: metabisulfite sickling test on blood of one patient before and 1 hour after oral APM; parameters: species or system human; details: blood 1 hour after
Protocol: During Week 1 of the study, blood samples were taken from the patient before and one hour after an orally administered dose of 60 milligrams APM. During Week 2, blood samples were taken from the patient before and one hour after an orally administered dose of 160 milligrams APM. The blood samples and slides were prepared according to the methods given in Example 1, and cell counts were taken at 0, 30, and 120 minutes post-induction.

sickling RBCs [2] = experiment: Blinded APM dose-response study of patients with sickle cell disorders (sickle cell counts); format: in vivo, human; details: for Dose-response of antisickling effect: 1.5, 3, 6 mg/kg body weight
Protocol: A blinded study was conducted with 23 patients diagnosed with sickle cell disorders. Blood samples were obtained from the 23 patients having sickle cell disease (homozygous HgBss), sickle cell trait (heterozygous Hgbsc), or homozygous HbS with a β-thalassemia chain (“sbthal”) before and after a blinded administration of APM at 1.5 (low dosage), 3 (medium dosage), or 6 (high dosage) milligrams per kilogram body weight.
Blood was drawn before and 120 minutes after treatment with 0, 1.5, 3, or 6 milligrams APM per kilogram body weight in a blinded fashion from the ten patients into heparin tubes, stored in a refrigerator at approximately 10° C. and routinely tested within 36 hours of collection.
Normal blood devoid of abnormal hemoglobin was used as a control. For each heparinized patient blood sample and the normal blood control, experimental samples were prepared containing 0.25 milliliters of normal saline and 0.25 milliliters of blood. Following the metabisulfite induction as given in Example 1, the number of sickle cells relative to the number of normal cells was obtained at 0, 30, 60, 120, 240, 480, and 1440 minutes post-induction.

whole blood viscosity [3] = experiment: Blood viscosity by RBC pipette method before and after blinded oral APM; format: in vivo, human; details: for Blood viscosity change after treatment: baseline vs 120 minutes post-treatment
Source text: Blood samples were obtained from ten patients having homozygous HbSS disease or heterozygous HbSC disease before and after a blinded administration of APM at 1.5 (low dosage), 3 (medium dosage), or 6 (high dosage) milligrams per kilogram body weight. The patients' characteristics are given in the first ten entries in Table II.
Viscosity determinations using the RBC pipette method of Wright and Jenkins (Wright, D. J. and Jenkins, Jr., D. E. 1970. Blood 36:516-522) were made on each blinded whole blood sample before and 120 minutes after blinded administration of APM. Each measurement was made in triplicate. Control viscosity measurements using saline and water for each patient and normal whole blood sample were also made to validate the viscosity measurements.
(§1) To measure viscosity, 1.01 cc of the test fluid, i.e., either water, saline or blood, was drawn into an RBC pipette using a 50 cc syringe attached via rubber tubing to the top of the RBC pipette. Using a constant pressure of 20 mm by maintaining the pressure with visual feedback and hand pressure, the amount of time it took for the test fluid to drip out of the RBC pipette was measured with a stopwatch. Each measurement was made in triplicate.

whole blood viscosity [4] = experiment: Blood viscosity after additional in vitro APM on samples taken post in vivo treatment; format: cell-based, human; details: 1 or 2 milligrams/milliliter APM added in vitro to 480 minute post-treatment samples
Protocol: as §1
Samples with high viscosity readings at 480 minute or 1,440 minute posttreatment, chosen to represent patients with a validated response to APM who were returning to normal, were divided and treated with an additional 0, 1, or 2 milligrams/milliliter APM in vitro, in an effort to measure whether a second inducible sickling response was possible and if a second response to the in vitro APM addition could be observed. The viscosity of each sample at 480 minutes post-treatment was measured.

[5] = tested on: osteo- and mixed osteo- and rheumatoid arthritis; details: clinical trial, Edmundson and Manion 1998; cited from earlier work

Passage of APM across the RBC membrane (RBCs containing HbS; in the absence of Ca2+ (EDTA)): does not pass the RBC membrane
Compound: COC(=O)[C@H](Cc1ccccc1)NC(=O)[C@@H](N)CC(=O)O [APM, N-L-alpha-aspartyl-L-phenylalanine 1-methyl ester] (H-Asp-Phe-OMe)
Number of Cells Sickled per Hundred Counted (RBCs containing HbS; APM 1 mg in 0.25 ml blood + 0.25 ml saline, 0 min after slide preparation): 1.5 per Hundred Counted (2×) and 1.0 per Hundred Counted and 0.5 per Hundred Counted and 0.0 per Hundred Counted and 2.5 per Hundred Counted (2×) and 2.0 per Hundred Counted (2×) and 9.5 per Hundred Counted (2×) and −1.0 per Hundred Counted | Number of Cells Sickled per Hundred Counted (RBCs containing HbS; APM 1 mg, 30 min after slide preparation): 2.5 per Hundred Counted and 2.0 per Hundred Counted and −1.0 per Hundred Counted and 6.0 per Hundred Counted and 1.5 per Hundred Counted and 3.5 per Hundred Counted (2×) and 3.0 per Hundred Counted and 10.5 per Hundred Counted and 9.0 per Hundred Counted and 4.5 per Hundred Counted and −0.5 per Hundred Counted | Number of Cells Sickled per Hundred Counted (RBCs containing HbS; APM 1 mg, 120 min after slide preparation): 1.5 per Hundred Counted and 3.5 per Hundred Counted (2×) and 1.0 per Hundred Counted and 21.0 per Hundred Counted and 2.5 per Hundred Counted and 3.0 per Hundred Counted and 12.0 per Hundred Counted and 11.0 per Hundred Counted and 4.0 per Hundred Counted and 0.5 per Hundred Counted | Number of Cells Sickled per Hundred Counted, Avg (RBCs containing HbS; APM 1 mg): 1.8 per Hundred Counted and 2.2 per Hundred Counted (2×) and 0.2 per Hundred Counted and 9.0 per Hundred Counted and 2.8 per Hundred Counted (2×) and 10.7 per Hundred Counted and 9.8 per Hundred Counted and 3.2 per Hundred Counted (2×) and −0.3 per Hundred Counted | Number of Cells Sickled per Hundred Counted, Mean (RBCs containing HbS; APM 1 mg): 4.0 per Hundred Counted | Number of Cells Sickled per Hundred Counted (RBCs containing HbS; APM 2 mg in 0.25 ml blood + 0.25 ml saline, 0 min after slide preparation): 0.5 per Hundred Counted (2×) and 0.0 per Hundred Counted (2×) and 2.0 per Hundred Counted (2×) and 2.5 per Hundred Counted and 1.0 per Hundred Counted (2×) and 6.5 per Hundred Counted and 8.5 per Hundred Counted and −5.5 per Hundred Counted | Number of Cells Sickled per Hundred Counted (RBCs containing HbS; APM 2 mg, 30 min after slide preparation): 0.5 per Hundred Counted (2×) and 1.0 per Hundred Counted and −0.5 per Hundred Counted and 6.0 per Hundred Counted and 2.0 per Hundred Counted (3×) and 1.5 per Hundred Counted and 5.0 per Hundred Counted and 8.5 per Hundred Counted and −6.5 per Hundred Counted | Number of Cells Sickled per Hundred Counted (RBCs containing HbS; APM 2 mg, 120 min after slide preparation): −0.5 per Hundred Counted (2×) and 0.5 per Hundred Counted and 19.0 per Hundred Counted and 2.5 per Hundred Counted and 5.0 per Hundred Counted and 2.0 per Hundred Counted (2×) and 9.5 per Hundred Counted and 1.0 per Hundred Counted and −6.5 per Hundred Counted | Number of Cells Sickled per Hundred Counted, Avg (RBCs containing HbS; APM 2 mg): 0.0 per Hundred Counted and 0.5 per Hundred Counted and −0.3 per Hundred Counted and 9.0 per Hundred Counted and 2.3 per Hundred Counted and 1.3 per Hundred Counted and 3.0 per Hundred Counted and 4.5 per Hundred Counted and 8.8 per Hundred Counted and 1.2 per Hundred Counted and 0.8 per Hundred Counted and −6.2 per Hundred Counted | Number of Cells Sickled per Hundred Counted, Mean (RBCs containing HbS; APM 2 mg): 2.1 per Hundred Counted | Antisickling effect of APM with addition of EDTA (RBCs containing HbS; EDTA (Ca2+ chelating agent) added prior to testing): completely eliminated the antisickling effect | Sickle cells after metabisulfite versus controls (RBCs containing HbS; all twelve patients, 1 and 2 mg APM, ANOVA p<0.00004): fewer sickle cells than the controls | Duration of antisickling effect in vitro (RBCs containing HbS; counts at 0-27 hours post-metabisulfite induction): at least 27 hours | Rate of sickling in APM treated cells (RBCs containing HbS; over 27 hours, versus controls): significantly less than that in the controls | Number of sickling RBCs relative to the control (sickling RBCs [1]; 60 milligrams APM orally, patient with sickle cell anemia): decrease in the number of sickling RBCs | Antisickling effect versus 60 milligram dosage (sickling RBCs [1]; 160 milligrams APM orally, same patient): proportionately larger | Dose-response of antisickling effect (sickling RBCs [2]; HgBss and sbthal patients): significant dose-response effect | Dose-response of antisickling effect (sickling RBCs [2]; Hgbsc patients): No dose-response effect | Effect on HbSC blood (sickling RBCs [2]; in vivo or in vitro, sickle cell number and viscosity): not affected | Number of sickling RBCs relative to the control (sickling RBCs [2]; lower dosage 1.5 mg/kg body weight): decrease in the number of sickling RBCs | Time to reduction in number of sickle cells relative to normal cells after administration (sickling RBCs [2]; patients with sickle cell family diseases, effective amount): within one hour | Blood viscosity change after treatment (whole blood viscosity [3]; HgBss patients, 1.5, 3 or 6 mg/kg): blood viscosity decreased | No. of Patients with decreasing viscosity (whole blood viscosity [3]; HgBss, of five patients): 5 | Blood viscosity change after treatment (whole blood viscosity [3]; Hgbsc patients): increased viscosity | No. of Patients with increasing viscosity (whole blood viscosity [3]; Hgbsc, of three patients): 3 | Blood viscosity change after treatment (whole blood viscosity [3]; sbthal patients): blood viscosity also decreased | No. of Patients with decreasing viscosity (whole blood viscosity [3]; sbthal, of two patients): 2 | Viscosity of blood samples compared to the control (whole blood viscosity [4]; HgBss patients): decreased over time | Viscosity of blood samples compared to the control (whole blood viscosity [4]; Hgbsc patients): increase in viscosity | Pain and inflammation of arthritis [5]: alleviate the pain and inflammation
